EC50 and IC50 data for 13 compounds are collected here from patent US11524940B1, “Inhibitors of cysteine proteases and methods of use thereof” (priority 2020, dated 2022).

Assay [1] has as its system Human Coronavirus (HCov) 229E. Nature of the assay: HCoV 229E cytopathic effect (CPE) assay. In kind it is cell-based. Particulars: protection from virus-induced CPE, CellTiter Glo.
Method: The antiviral activity of compounds is calculated based on the protection of the virus-induced CPE at each concentration normalized by the virus control.
Reagents and instruments used in this assay include luminescent cell viability assay kit CellTiter Glo (Promega) and Microplate Reader Synergy2 (BioTek).
Cytopathic effect (CPE) is measured by CellTiter Glo following the manufacturer's manual. The antiviral activity of compounds is calculated based on the protection of the virus-induced CPE at each concentration normalized by the virus control.
A further assay has as its target 229E Mpro (Human coronavirus 229E (HCoV-229E), UniProt P0C6X1). Nature of the assay: 229E Mpro activity. In kind it is biochemical. Particulars: read-out: 229E Mpro EC50.
Another assay has as its target SARS-CoV2 Mpro (Severe acute respiratory syndrome coronavirus 2 (2019-nCoV) (SARS-CoV-2), UniProt P0DTD1). Nature of the assay: COVID-19 (SARS-CoV2) Mpro enzymatic assay. Type of assay: biochemical. Particulars: 25 nM Mpro, 25 μM substrate.

Some results are limits rather than exact numbers.

Chain of 229E Mpro (P0C6X1 2966-3267 limits assumed): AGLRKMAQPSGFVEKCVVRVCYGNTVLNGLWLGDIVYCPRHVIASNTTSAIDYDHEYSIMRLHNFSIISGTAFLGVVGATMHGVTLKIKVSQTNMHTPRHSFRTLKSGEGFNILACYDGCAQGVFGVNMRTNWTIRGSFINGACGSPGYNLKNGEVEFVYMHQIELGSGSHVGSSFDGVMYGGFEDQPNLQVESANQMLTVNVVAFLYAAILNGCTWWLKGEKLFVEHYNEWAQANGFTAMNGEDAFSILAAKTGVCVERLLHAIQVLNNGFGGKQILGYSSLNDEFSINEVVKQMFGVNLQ
Method for 229E Mpro: Compounds are assayed using standard methods to assess compound activity and IC50. […] The assay buffer contains 20 mM of Tris-HCl (pH 7.3), 100 mM of NaCl, 1 mM of EDTA, 5mM of TCEP and 0.1% BSA.

Consider `COc1cccc2[nH]c(C(=O)N3CC4(CC3C(=O)N[C@H](C#N)C[C@@H]3CCCNC3=O)CC(F)(F)C4)cc12` (single isomer, unassigned) [723 (Isomer 2)], for which the EC50 (in assay [1] (human coronavirus 229E); at 229E Mpro) was below 2000 nM each time. The IC50 against SARS-CoV2 Mpro was below 2000 nM.
For the compound `N#C[C@H](C[C@@H]1CCCNC1=O)NC(=O)C1CC2(CCCCC2)CN1C(=O)c1cc2cccc(Cl)c2[nH]1` (single isomer, unassigned) [731 (Isomer 1)], the EC50 (in assay [1] (human coronavirus 229E); at 229E Mpro) was below 2000 nM throughout. In addition, the IC50 on SARS-CoV2 Mpro was below 2000 nM.
Take `N#C[C@H](C[C@@H]1CCCNC1=O)NC(=O)C1CC2(CCCCC2)CN1C(=O)c1cc2ccc(Cl)cc2[nH]1` (single isomer, unassigned) [733 (Isomer 1)]: the EC50 (in assay [1] (human coronavirus 229E); at 229E Mpro) was below 2000 nM each time. In addition, at SARS-CoV2 Mpro, the IC50 is below 2000 nM.
On to `COc1cccc2[nH]c(C(=O)N[C@@H](CC(C)C)C(=O)N[C@H](C#N)C[C@@H]3CCNC3=O)cc12` [Compound 101, N-[(1S)-1-[[(1S)-1-cyano-2-[(3S)-2-oxopyrrolidin-3-yl]ethyl]carbamoyl]-3-methyl-butyl]-4-methoxy-1H-indole-2-carboxamide], for which the EC50 (in assay [1] (human coronavirus 229E); on 229E Mpro) was below 2000 nM in each case.
On to `COc1cccc2[nH]c(C(=O)N3C[C@H]4C([C@H]3C(=O)N[C@H](C#N)C[C@@H]3CCNC3=O)C4(C)C)cc12` (stereo partly drawn) [Compound 197, (2S,5S)-N-[(1S)-1-cyano-2-[(3S)-2-oxopyrrolidin-3-yl]ethyl]-3-(4-methoxy-1H-indole-2-carbonyl)-6,6-dimethyl-3-azabicyclo[3.1.0]hexane-2-carboxamide], for which the concentration for a half-maximal effect (EC50) (in assay [1] (human coronavirus 229E); at 229E Mpro) was below 2000 nM each time.
For `COc1cccc2[nH]c(C(=O)N[C@@H](CC(C)C)C(=O)N[C@@H](C[C@@H]3CCNC3=O)C(N)C#N)cc12` (stereo partly drawn) [Compound 344C, N-[(1S)-1-[[(1S)-2-amino-2-cyano-1-[[(3S)-2-oxopyrrolidin-3-yl]methyl]ethyl]carbamoyl]-3-methyl-butyl]-4-methoxy-1H-indole-2-carboxamide], the concentration for a half-maximal effect (EC50) (in assay [1] (human coronavirus 229E); at 229E Mpro) was below 2000 nM throughout.
Consider `CCCOc1cccc2[nH]c(C(=O)N[C@@H](CC3CC3)C(=O)N[C@H](C#N)C[C@@H]3CCNC3=O)cc12` [Compound 379, N-[(1S)-2-[[(1S)-1-cyano-2-[(3S)-2-oxopyrrolidin-3-yl]ethyl]amino]-1-(cyclopropylmethyl)-2-oxo-ethyl]-4-propoxy-1H-indole-2-carboxamide], for which the EC50 (in assay [1] (human coronavirus 229E); on 229E Mpro) was below 2000 nM each time.
For the compound `CC(C)C[C@H](NC(=O)c1cc2c(OC(F)F)cccc2[nH]1)C(=O)N[C@H](C#N)C[C@@H]1CCNC1=O` [Compound 509, N-[(1S)-1-[[(1S)-1-cyano-2-[(3S)-2-oxopyrrolidin-3-yl]ethyl]carbamoyl]-3-methyl-butyl]-4-(difluoromethoxy)-1H-indole-2-carboxamide], the EC50 (in assay [1] (human coronavirus 229E); on 229E Mpro) was below 2000 nM each time.
As for `N#C[C@H](C[C@@H]1CCNC1=O)NC(=O)[C@H](CC1CC1)NC(=O)c1cc2cc(Cl)ccc2[nH]1` [Compound 519, 5-chloro-N-[(1S)-2-[[(1S)-1-cyano-2-[(3S)-2-oxopyrrolidin-3-yl]ethyl]amino]-1-(cyclopropylmethyl)-2-oxo-ethyl]-1H-indole-2-carboxamide], the EC50 (in assay [1] (human coronavirus 229E); at 229E Mpro) was below 2000 nM throughout.
Turning to `N#C[C@H](C[C@@H]1CCNC1=O)NC(=O)[C@H](CC1CC1)NC(=O)c1cc2cccc(Cl)c2[nH]1` [Compound 531, 7-chloro-N-[(1S)-2-[[(1S)-1-cyano-2-[(3S)-2-oxopyrrolidin-3-yl]ethyl]amino]-1-(cyclopropylmethyl)-2-oxo-ethyl]-1H-indole-2-carboxamide], the EC50 (in assay [1] (human coronavirus 229E); at 229E Mpro) was below 2000 nM in each case.
For the compound `COc1cccc2[nH]c(C(=O)N[C@@H](CC3CCC3)C(=O)N[C@H](C#N)C[C@@H]3CCNC3=O)cc12` [Compound 577, N-[(1S)-2-[[(1S)-1-cyano-2-[(3S)-2-oxopyrrolidin-3-yl]ethyl]amino]-1-(cyclobutylmethyl)-2-oxo-ethyl]-4-methoxy-1H-indole-2-carboxamide], the concentration giving a half-maximal response (EC50) (in assay [1] (human coronavirus 229E); at 229E Mpro) was below 2000 nM in each case.
In the case of `COc1cccc2[nH]c(C(=O)N[C@@H](CC(C)(C)C)C(=O)N[C@H](C#N)C[C@@H]3CCCNC3=O)cc12` [Compound 643, N-[(1S)-1-[[(1S)-1-cyano-2-[(3S)-2-oxo-3-piperidyl]ethyl]carbamoyl]-3,3-dimethyl-butyl]-4-methoxy-1H-indole-2-carboxamide], the EC50 (in assay [1] (human coronavirus 229E); at 229E Mpro) was below 2000 nM throughout.
Consider “(S)-N-((S)-1-cyano-2-((S)-2-oxopyrrolidin-3-yl)ethyl)-1-(4-methoxy-1H-indole-2-carbonyl)-4,4-dimethylpyrrolidine-2- carboxamide [Compound 395]”, for which the EC50 in assay [1] was 2000 to 10000 nM; on 229E Mpro it was 10000 to 30000 nM. At SARS-CoV2 Mpro, this compound showed an IC50 of 2000 to 10000 nM.
